Literature values, collected in patent publication EP3815682A1, “A PERK KINASE INHIBITOR FOR TREATING DISEASES ASSOCIATED WITH ENDOPLASMIC RETICULUM STRESS” (Uniwersytet Medyczny w Lodzi, priority 2019, dated 2021).

How the values were obtained:
[1] = not told
[2] = test system: eIF2α phosphorylation
[3] = test system: PERK and eIF2α
[4] = test system: pancreatic cells
[5] = target: T1, PERK kinase and eIF2α protein phosphorylation (Homo sapiens, UniProt Q9NZJ5); conditions: Atkins et al.
T1 sequence (Q9NZJ5 30-1116): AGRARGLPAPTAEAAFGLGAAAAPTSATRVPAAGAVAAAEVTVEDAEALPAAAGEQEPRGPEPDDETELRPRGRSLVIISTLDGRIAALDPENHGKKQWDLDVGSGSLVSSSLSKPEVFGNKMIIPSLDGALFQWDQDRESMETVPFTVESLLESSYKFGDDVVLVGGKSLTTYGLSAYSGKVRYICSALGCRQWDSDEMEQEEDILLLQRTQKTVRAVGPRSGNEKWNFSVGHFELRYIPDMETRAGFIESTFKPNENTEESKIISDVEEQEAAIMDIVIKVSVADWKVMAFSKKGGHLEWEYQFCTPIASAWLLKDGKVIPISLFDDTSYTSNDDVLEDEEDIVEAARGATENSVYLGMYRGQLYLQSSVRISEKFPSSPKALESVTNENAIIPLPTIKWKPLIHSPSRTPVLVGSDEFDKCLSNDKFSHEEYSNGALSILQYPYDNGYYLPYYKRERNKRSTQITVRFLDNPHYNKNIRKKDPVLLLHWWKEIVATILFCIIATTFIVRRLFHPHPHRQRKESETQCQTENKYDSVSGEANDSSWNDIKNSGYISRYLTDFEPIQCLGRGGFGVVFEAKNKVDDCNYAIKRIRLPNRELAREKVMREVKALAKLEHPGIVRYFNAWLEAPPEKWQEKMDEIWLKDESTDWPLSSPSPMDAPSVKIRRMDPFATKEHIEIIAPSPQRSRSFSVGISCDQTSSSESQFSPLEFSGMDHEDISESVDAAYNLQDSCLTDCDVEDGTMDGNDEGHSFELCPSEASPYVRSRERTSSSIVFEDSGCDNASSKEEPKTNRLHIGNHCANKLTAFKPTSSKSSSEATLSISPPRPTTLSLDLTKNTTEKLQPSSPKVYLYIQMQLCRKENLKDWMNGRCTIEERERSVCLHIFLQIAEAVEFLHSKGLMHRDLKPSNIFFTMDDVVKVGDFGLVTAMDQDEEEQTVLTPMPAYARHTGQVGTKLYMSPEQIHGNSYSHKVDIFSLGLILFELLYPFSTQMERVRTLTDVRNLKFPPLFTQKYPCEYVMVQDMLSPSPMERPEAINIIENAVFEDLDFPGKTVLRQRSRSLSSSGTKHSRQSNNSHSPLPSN

[6] = test system: pancreatic cells; conditions: reason for not entering clinical trials
[7] = animals administered the inhibitor

## O=C(COc1ccc(Cl)cc1)NC1CCC(NC(=O)COc2ccc(Cl)cc2)CC1 (stereo not shown) [ISRIB]
[1]
  permeability of the blood-brain barrier: good permeability

## O=C(/C=C/c1ccccc1)NC(NC(=S)Nc1cccc2cccnc12)C(Cl)(Cl)Cl (stereo not shown) [Salubrinal]
[2]; compared with animals that did not receive the compound
  survival: died quicker
[2]; mouse, in vivo
  eIF2α phosphorylation: increase

## Cn1cc(-c2ccc3c(c2)CCN3C(=O)Cc2cccc(C(F)(F)F)c2)c2c(N)ncnc21 [GSK2606414]
[3]; compared with mice not administered the inhibitor
  level of phosphorylated forms of PERK and eIF2α: substantially lower
[3]; mouse, in vivo
  protein synthesis in cells: temporary restoration of protein synthesis
[4]; [7]
  glycemia: hyperglycemia
  weight: significant weight loss
[4]; mice
  effect on pancreatic cells: cytotoxic effect

## Cc1cccc(CC(=O)N2CCc3c2ccc(-c2cn(C)c4ncnc(N)c24)c3F)n1 [GSK2656157]
[5]
  inhibition of PERK kinase and eIF2α protein phosphorylation: effective inhibition
[6]
  activity on pancreatic cells: non-selective activity also on pancreatic cells
